# How the values were obtained:
# [1] = target: T1, porcine pancreatic elastase (PPE) (Sus scrofa, UniProt P00772); assay: Elastase inhibition assay with SANA substrate; format: biochemical; details: for %I @50 μM / mode of inhibition (Lineweaver–Burk plot) / IC50: PPE; for %I @50 μM: 50 µM compound, SANA substrate, mean ± SD, n = 3; for mode of inhibition (Lineweaver–Burk plot): SANA as substrate; for IC50: SANA substrate 1.6 mM, Tris-HCl pH 8.0; for Ki: binding with the free enzyme, secondary plot of Lineweaver–Burk slopes, SANA 0.5-1.5 mM, read-out: inhibition constant (Ki)
# T1 construct: purchased Merck Sigma Aldrich (Milano, Italy)
# Description: The inhibition mechanism was assessed using Lineweaver–Burk plot analysis.
# Elastase inhibition was determined using the substrate N‐succ‐(Ala)3‐nitroanilide (SANA) as previously described.^[ [27] ^] The assay was performed in 0.1 M Tris‐HCl buffer (pH 8.0). PPE (3.3 µg mL^−1) was incubated with or without the compound for 20 min, and after incubation, the substrate (1.6 mM) was added. The release of p‐nitroaniline during cleavage of the substrate SANA by the enzyme activity was monitored at 410 nm. The control was performed with DMSO, while oleanolic acid was used as a positive control. […] The mode of inhibition on the enzyme was performed using the Lineweaver–Burk plot. Different concentrations of SANA (0.5, 0.75, 1.0, and 1.5 mM) were used for the assay. All reagents were purchased from “Merck Sigma Aldrich” (Milano, Italy).
# [2] = Relative lipophilicity by reverse-phase TLC (RM); format: physicochemical; details: RP-TLC C18, acetone–water 2/1 v/v, 25 °C, RM = log[(1/RF) − 1]
# Description: In addition, we assessed the relative lipophilicity of the investigated compounds using the reverse‐phase thin layer chromatography (RP‐TLC), following the procedure detailed in Experimental Section. Based on retention factor (R F), we obtained the corresponding R M values for the homogenous series of compounds 1–9. The applied methodology is described in detail in the Experimental Section.
# The experimental determination of relative lipophilicity was carried out using reversed‐phase thin‐layer chromatography (20 × 20 cm plates coated with C18 silica RP18 F254, E. Merck, Darmstadt, Germany). A binary solvent system consisting of acetone–water (2/1, v/v) served as the mobile phase. Compounds 1–9 were prepared in methanol to obtain a concentration of 2.0 mg/mL; from these working solutions, a volume of 0.2 μL was spotted on the plate, which was dried at 105 °C for 1 h before use. The chromatograms were developed to a distance of 10 cm from the origin in ascending TLC chambers and developed at 25 °C. After development, compound spots were visualized under UV light at 254 nm. Each determination was performed as triplicate 3 by spotting the compounds on the plate in distinct position; therefore, each RF value resulted as a mean value obtained in triplicate.
# [3] = target: T1, porcine pancreatic elastase (PPE); set-up: method as in PMID 39456954; details: PPE active site; cited from earlier work
# T1 sequence (P00772 27-266): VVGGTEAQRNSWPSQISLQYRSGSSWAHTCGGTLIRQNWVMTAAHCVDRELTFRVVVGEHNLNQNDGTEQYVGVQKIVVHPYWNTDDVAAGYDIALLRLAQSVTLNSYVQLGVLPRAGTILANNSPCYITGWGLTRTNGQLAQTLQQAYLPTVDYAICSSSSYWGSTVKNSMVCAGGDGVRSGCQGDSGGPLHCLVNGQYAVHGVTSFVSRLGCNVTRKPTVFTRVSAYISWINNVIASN
SMILES,%I @50 μM [1] [%],RM (relative lipophilicity) [2],mode of inhibition (Lineweaver–Burk plot) [1],IC50 [1] [µM],Ki [1] [µM],mode of inhibition [3]
"Cc1cc(C)cc(Cn2c(SCC(=O)Nc3ccc(C)cc3Cl)nc3ccccc32)c1 [Compound 1, N‐(2‐chloro‐4‐methylphenyl)‐2‐[[1‐[(3,5‐dimethylphenyl)methyl]‐1H‐benzimidazol‐2‐yl]thio]acetamide]",30.0 ± 2.1,1.023,,,,reversible competitive inhibitor
"Cc1cc(C)cc(Cn2c(SCC(=O)Nc3ccccc3Cl)nc3ccccc32)c1 [Compound 2, N‐(2‐Chlorophenyl)‐2‐(1‐(3,5‐dimethylbenzyl)‐1H‐benzo[d]imidazol‐2‐ylthio)acetamide]",29.1 ± 2.3,0.971,,,,
"Cc1cc(C)cc(Cn2c(SCC(=O)Nc3ccccc3Br)nc3ccccc32)c1 [Compound 3, N‐(2‐Bromophenyl)‐2‐(1‐(3,5‐dimethylbenzyl)‐1H‐benzo[d]imidazol‐2‐ylthio)acetamide]",26.5 ± 0.4,0.938,,,,
"Cc1cc(C)cc(Cn2c(SCC(=O)Nc3ccc(S(C)(=O)=O)cc3Cl)nc3ccccc32)c1 [Compound 4, N‐(2‐Chloro‐4‐(methylsulfonyl)phenyl)‐2‐(1‐(3,5‐dimethylbenzyl)‐1H‐benzo[d]imidazol‐2‐ylthio)acetamide]",17.3 ± 0.7,0.678,,,,
"Cc1cc(C)cc(Cn2c(SCC(=O)Nc3ccc(S(N)(=O)=O)cc3Cl)nc3ccccc32)c1 [Compound 5, N‐(2‐Chloro‐4‐sulfamoylphenyl)‐2‐(1‐(3,5‐dimethylbenzyl)‐1‐benzo[d]imidazol‐2‐ylthio)acetamide]",19.3 ± 0.9,0.558,,,,
"Cc1cc(C)cc(Cn2c(SCC(=O)Nc3ccccc3Cl)nc3ccc(Cl)cc32)c1 [Compound 6, 2‐(6‐Chloro‐1‐(3,5‐dimethylbenzyl)‐1H‐benzo[d]imidazol‐2‐ylthio)‐N‐(2‐chlorophenyl)acetamide]",57.4 ± 2.6,1.221,competitive,44.8 ± 1.4,25.8,

# Now from value to compound, other results behind:
%I @50 μM [1] [%],RM (relative lipophilicity) [2],mode of inhibition (Lineweaver–Burk plot) [1],IC50 [1] [µM],Ki [1] [µM],SMILES,mode of inhibition [3]
62.2 ± 2.1,1.195,competitive,41.1 ± 1.9,21,"Cc1cc(C)cc(Cn2c(SCC(=O)Nc3ccccc3Br)nc3ccc(Cl)cc32)c1 [Compound 7, N‐(2‐Bromophenyl)‐2‐(6‐chloro‐1‐(3,5‐dimethylbenzyl)‐1H‐benzo[d]imidazol‐2‐ylthio)acetamide]",
40.6 ± 0.7,1.121,,,,"Cc1cc(C)cc(Cn2c(SCC(=O)Nc3ccc(C)cc3Cl)nc3ccc(Cl)cc32)c1 [Compound 8, 2‐(6‐chloro‐1‐(3,5‐dimethylbenzyl)‐1H‐benzo[d]imidazol‐2‐ylthio)‐N‐(2‐chloro‐4‐methylphenyl)acetamide]",
31.0 ± 0.6,1.023,,,,"Cc1cc(C)cc(Cn2c(SCC(=O)Nc3ccc(S(C)(=O)=O)cc3Cl)nc3ccc(Cl)cc32)c1 [Compound 9, 2‐(6‐Chloro‐1‐(3,5‐dimethylbenzyl)‐1H‐benzo[d]imidazol‐2‐ylthio)‐N‐(2‐chloro‐4‐(methylsulfonyl)phenyl)acetamide]",

# Source: paper PMC12913230, “Investigating the Ligand‐Binding Properties of N‐arylbenzimidazoles as Novel Elastase Inhibitors” (Chemmedchem, 2025)
